Measurements from publication PMC6054517, “Design and synthesis of novel oridonin analogues as potent anticancer agents” (Journal of Enzyme Inhibition and Medicinal Chemistry, 2018).
Like-named read-outs stand apart in the source and are kept apart here.

Key:
AGS = assay: MTT antiproliferative assay, AGS cells; assay type: cell-based, human; settings: for IC50: 48 h, MTT, means ± SD, n = 3
Text: (§1) Human gastric cancer (AGS), human differentiation of advanced gastric cancer (MGC803), human colorectal cancer (HCT116), human lung cancer (A549), human hepatocellular carcinoma (Bel7402) and human cervical cancer (HeLa) cell lines were obtained from the State Key Laboratory of Natural Resources and Functional Molecules of the Changbai Mountain (Yanbian University) and maintained in Dulbecco’s modified Eagle’s medium and RPMI Media 1640 (RPMI1640), supplemented with 10% foetal bovine serum 100 IU/ml penicillin, […] and 2 mmol/l L-glutamine (Sigma) at 37 °7 in a humidified atmosphere containing 5% CO2.
(§2) All six human cancer cell lines and normal L02 cells were seeded in 96-well plates at the appropriate densities to ensure exponential growth throughout the experimental period (9 × 10^3 cells per well) and then allowed to adhere for 24 h. The cells were then treated for 48 h with four serial dilutions (100, 50, 10, and 1 µM) of each compound. 5-Fluorouracil (5-FU) was used as the positive control. After incubation for 48 h, 10 µl MTT solution was added to each well to give a final concentration of 2 mg ml^−1. The plates were then incubated for further 4 h. After incubation, the MTT solution was removed and 150 µl DMSO was added to each well to solubilise the formed product. To ensure complete solubilisation, the plates were shaken vigorously for 10 min at room temperature. The optometric density (OD) was read on a microplate reader (ELx800, BioTek, Highland Park, Winooski, VT) at a wavelength of 492 nm and the data were subsequently analysed. The percentage of cell growth inhibition was calculated from the following equation: inhibitory rate (%) = [1–(ODtreated–ODblank)/(ODcontrol–ODblank)] × 100.
(§3) The MTT assay was performed using a standard protocol.

MGC803 = assay: MTT antiproliferative assay, MGC803 cells; assay type: cell-based, human; settings: for IC50: Homo sapiens, MGC-803, MTT, 48 h, means ± SD, n = 3
Text: as §1, §2, §3

Bel7402 = assay: MTT antiproliferative assay, Bel7402 cells; assay type: cell-based, human; settings: for IC50: Homo sapiens, Bel-7402, MTT, 48 h, means ± SD, n = 3
Text: as §1, §2, §3

HCT116 = assay: MTT antiproliferative assay, HCT116 cells; assay type: cell-based, human; settings: for IC50: Homo sapiens, HCT-116, 48 h, MTT, 48 h, means ± SD, n = 3
Text: as §1, §2, §3

A549 = assay: MTT antiproliferative assay, A549 cells; assay type: cell-based, human; settings: for IC50: Homo sapiens, A549, MTT, 48 h, means ± SD, n = 3
Text: as §1, §2, §3

Hela = assay: MTT antiproliferative assay, HeLa cells; assay type: cell-based, human; settings: Homo sapiens, HeLa; MTT, 48 h, means ± SD, n = 3
Text: as §1, §2, §3

[1] = test system: AGS, MGC803, Bel7402, HCT116, A549, and HeLa; assay: MTT assay, overall statement on six tumour cell lines; assay type: cell-based, human; settings: six cancer cell lines
Text: as §1, §2, §3

A549 cells = settings: cited from earlier work
L02 = assay: MTT assay on normal cell line L02; assay type: cell-based; settings: normal human liver cell line L02, MTT, 48 h
Procedure: as §2, with “5-Fluorouracil (5-FU) was used as the positive control.” left out
Lack of selective cytotoxicity is the main factor that restricts the dose of most conventional chemotherapeutic agents. […] Selectivity indexes between cancer cells and L-02 cells were calculated.

IC50 (AGS; Homo sapiens, AGS) [µM]	IC50 (MGC803) [µM]	IC50 (Bel7402) [µM]	IC50 (HCT116) [µM]	IC50 (A549) [µM]	IC50 (Hela) [µM]	IC50 (AGS) [µM]	SMILES	antiproliferative activities against the six tumour cell lines (in words) [1]	IC50 (A549 cells; A549 cells) [µM]	IC50 (A549 cells; A549) [µM]	Selectivity index AGS (AGS; IC50 on normal cells (L02)/IC50 on tumour cells (AGS))	Selectivity index MGC803 (MGC803; IC50 on normal cells (L02)/IC50 on tumour cells (MGC803))	Selectivity index Bel7402 (Bel7402; IC50 on normal cells (L02)/IC50 on tumour cells (Bel7402))	Selectivity index HCT116 (HCT116; IC50 on normal cells (L02)/IC50 on tumour cells (HCT116))	Selectivity index A549 (A549; IC50 on normal cells (L02)/IC50 on tumour cells (A549))	IC50 (L02) [µM]
51 ± 3.34	53.2 ± 4.05	7 ± 1.05	10 ± 1.13	99.8 ± 7.45	> 100	–	CC1(C)CC[C@H](O)C23CO[C@](O)([C@@H](O)[C@H]12)[C@]12C(=O)/C(=C/c4ccc(N)cc4)[C@H](CC[C@@H]31)[C@H]2O [Compound 2s, (1S,4aR,5S,6S,6aR,9S,11aS,14R,E)-8-(4-aminobenzylidene)-1,5,6,14-tetrahydroxy-4,4-dimethyldecahydro-1H-6,11b-(epoxymethano)-6a,9-methanocyclohepta[a]-naphthalen-7(8H)-one]	poor antiproliferative activities	–	–	–	–	–	–	–	–
–	–	–	–	–	–	–	C/C1=C\[C@H]2OC(=O)/C(=C/c3ccc(Cl)cc3)[C@@H]2CC/C(C)=C/CC1 [Compound 3]	–	15.7	–	–	–	–	–	–	–
–	–	–	–	–	–	–	CCOc1cccc2c1OC(C(=O)/C=C/c1ccc(N(C)C)cc1)C2 (stereo not drawn) [Compound 5]	–	–	9	–	–	–	–	–	–
–	–	–	–	–	–	–	C=C1C(=O)O[C@@H]2/C=C(\C)CC/C=C(\C)CC[C@@H]12 [Costunolide]	–	39.8	–	–	–	–	–	–	–
> 100	> 100	> 100	30.1 ± 3.57	> 100	> 100	–	CC1(C)CC[C@H](O)C23CO[C@](O)([C@@H](O)[C@H]12)[C@]12C(=O)/C(=C/c4ccc(O)cc4)[C@H](CC[C@@H]31)[C@H]2O [Compound 2x, (1S,4aR,5S,6S,6aR,9S,11aS,14R,E)-1,5,6,14-tetrahydroxy-8-(4-hydroxybenzylidene)-4,4-dimethyldecahydro-1H-6,11b-(epoxymethano)-6a,9-methanocyclohepta[a]naphthalen-7(8H)-one]	poor antiproliferative activities	–	–	–	–	–	–	–	–
> 100	> 100	> 100	22.1 ± 3.28	> 100	> 100	–	CC1(C)CC[C@H](O)C23CO[C@](O)([C@@H](O)[C@H]12)[C@]12C(=O)/C(=C/c4cccc(O)c4)[C@H](CC[C@@H]31)[C@H]2O [Compound 2w, (1S,4aR,5S,6S,6aR,9S,11aS,14R,E)-1,5,6,14-tetrahydroxy-8-(3-hydroxybenzylidene)-4,4-dimethyldecahydro-1H-6,11b-(epoxymethano)-6a,9-methanocyclohepta[a]naphthalen-7(8H)-one]	poor antiproliferative activities	–	–	–	–	–	–	–	–
22.1 ± 1.04	10 ± 0.84	14.6 ± 1.66	47.9 ± 3.91	97.1 ± 5.93	> 100	–	CC(=O)Nc1ccc(/C=C2/C(=O)[C@]34[C@H](O)[C@H]2CC[C@H]3C23CO[C@]4(O)[C@@H](O)[C@@H]2C(C)(C)CC[C@@H]3O)cc1 [Compound 2t, N-(4-((E)-((1S,4aR,5S,6S,6aR,9S,11aS,14R)-1,5,6,14-tetrahydroxy-4,4-dimethyl-7-oxodecahydro-1H-6,11b-(epoxymethano)-6a,9-methanocyclohepta[a]naphthalen-8(7H)-ylidene)methyl)phenyl)acetamide]	poor antiproliferative activities	–	–	–	–	–	–	–	–
14.1 ± 1.65	2.13 ± 0.13	16.9 ± 1.3	19.8 ± 3.19	12.7 ± 1.56	15.2 ± 1.47	–	CC1(C)CCC(O)C23COC(O)(C(O)C12)C12C(=O)C(=Cc4cccc(Cl)c4)C(CCC31)C2O [Compound 2d, (1S,4aR,5S,6S,6aR,9S,11aS,14R,E)-8-(3-chlorobenzylidene)-1,5,6,14-tetrahydrox-y-4,4-dimethyldecahydro-1H-6,11b-(epoxymethano)-6a,9-methanocyclohepta[a]-naphthalen-7(8H)-one]	–	–	–	–	–	–	–	–	–
–	3.49 ± 0.44	2.41 ± 0.37	2.28 ± 0.54	5.12 ± 0.49	14.3 ± 2.04	5.85 ± 1.55	COc1ccc(C=C2C(=O)C34C(O)C2CCC3C23COC4(O)C(O)C2C(C)(C)CCC3O)c(OC)c1 [Compound 2l, (1S,4aR,5S,6S,6aR,9S,11aS,14R,E)-8-(2,4-dimethoxybenzylidene)-1,5,6,14-tetrahydroxy-4,4-dimethyldecahydro-1H-6,11b-(epoxymethano)-6a,9-methanocyclohe-pta[a]naphthalen-7(8H)-one]	more potent antiproliferative activities in vitro than oridonin	–	–	1.22	2.05	2.97	3.14	1.40	7.15 ± 1.36
30.3 ± 2.24	32.9 ± 2.31	60.3 ± 4.14	28.2 ± 2.67	> 100	> 100	–	CC1(C)CC[C@H](O)C23CO[C@](O)([C@@H](O)[C@H]12)[C@]12C(=O)/C(=C/c4ccccc4O)[C@H](CC[C@@H]31)[C@H]2O [Compound 2v, (1S,4aR,5S,6S,6aR,9S,11aS,14R,E)-1,5,6,14-tetrahydroxy-8-(2-hydroxybenzylidene)-4,4-dimethyldecahydro-1H-6,11b-(epoxymethano)-6a,9-methanocyclohepta[a]naphthalen-7(8H)-one]	poor antiproliferative activities	–	–	–	–	–	–	–	–
29.6 ± 3.4	30.5 ± 4.42	21.3 ± 2.43	24.8 ± 2.08	23.7 ± 3.14	34.6 ± 3.14	–	O=c1[nH]cc(F)c(=O)[nH]1 [Compound 5-FU, 5-Fluorouracil, reference compound]	–	–	–	–	–	–	–	–	–
17.6 ± 2.32	17.7 ± 1.67	3.15 ± 0.64	11.1 ± 1.83	13.6 ± 1.89	30.7 ± 2.9	–	COc1ccc(/C=C2/C(=O)[C@]34[C@H](O)[C@H]2CC[C@H]3C23CO[C@]4(O)[C@@H](O)[C@@H]2C(C)(C)CC[C@@H]3O)cc1OC [Compound 2m, (1S,4aR,5S,6S,6aR,9S,11aS,14R,E)-8-(3,4-dimethoxybenzylidene)-1,5,6,14-tetrahydroxy-4,4-dimethyldecahydro-1H-6,11b-(epoxymethano)-6a,9-methanocyclohepta[a]naphthalen-7(8H)-one]	–	–	–	–	–	–	–	–	–
